US7038047B2, “Substituted 6-(2-methoxyphenyl) triazolopyrimides as fungicides” (BASF Aktiengesellschaft, priority 2001, dated 2006)

Assays:
[1] = system: Cercospora beticola; experiment: Fungicidal control of leaf spot on beets (Cercospora beticola), protective spray on sugar beet seedlings; assay type: in vivo; details: sugar beet seedlings ACH-31, sprayed before inoculation, untreated plants infected to 90%
Protocol: The active compounds, separately or together, were formulated as a 10% emulsion in a mixture of 70% by weight of cyclohexanone, 20% by weight of Nekanil® LN (Lutensol® AP6, wetting agent having emulsifying and dispersant action based on ethoxylated alkylphenols) and 10% by weight of Wettol® EM (nonionic emulsifier based on ethoxylated castor oil) and diluted with water to the desired concentration. Young sugar beet seedlings of the cultivar “ACH-31” were grown in pots to the 2 to 4 leaf stage. These plants were sprayed to runoff with an aqueous suspension, containing the concentration of active ingredient mentioned in the table below, prepared from a stock solution containing 5% of the active ingredient, 94% cyclohexanone and 1% emulsifier (Tween 20). After the plants had dried (3–5 h), they were inoculated with a spore suspension of Cercospora beticola in an aqueous solution of 0.5% gelatine. Then the trial plants were immediately transferred to a humid chamber with 18–23° C. and a relative humidity close to 100% and kept there for 5 days. For a period of further 10–14 days a cultivation in a greenhouse followed at 21–23° C. and a relative humidity about 95%. Then the extent of fungal attack on the leaves was visually assessed as % diseased leaf area.

[2] = system: cucumber mildew (Sphaerotheca fuliginea); experiment: Protective action on cucumber mildew, cucumber seedlings; assay type: in vivo; details: 250 ppm, inoculated 20 hours after spraying, assessed after 7 days, untreated plants infected to 90%
Text: The active compounds, separately or together, were formulated as a 10% emulsion in a mixture of 70% by weight of cyclohexanone, 20% by weight of Nekanil® LN (Lutensol® AP6, wetting agent having emulsifying and dispersant action based on ethoxylated alkylphenols) and 10% by weight of Wettol® EM (nonionic emulsifier based on ethoxylated castor oil) and diluted with water to the desired concentration.
Leaves of pot grown cucumber seedlings of the “Chinesische Schlange” variety were sprayed to runoff with aqueous liquors made from a stock solution consisting of 10% of active ingredient, 85% of cyclohexanone, and 5% of emulsifier. 20 hours after the sprays-on layer had dried, the plants were inoculated with a aqueous spore suspension of cucumber mildew (Sphaerotheca fuliginea). The plants were then placed for 7 days in the greenhouse at 20 to 24° C. and a relative humidity of 60 to 80%. The extent of fungus spread was assessed as %-attack of the whole leaf surface.

| Compound | infection (% diseased leaf area) ([1]; 50 ppm) | infection (% diseased leaf area) ([1]; 200 ppm) | infection (%-attack of the whole leaf surface) [2] |
| --- | --- | --- | --- |
| COc1cc(F)cc(F)c1-c1c(Cl)nc2ncnn2c1NC(C)C(F)(F)F (stereo not drawn) [I-38, 5-chloro-6-(4,6-difluoro-2-methoxyphenyl)-7-(1,1,1-trifluoroprop-2-yl)amino-[1,2,4]-triazolo[1,5-α]pyrimidine] | not more than 7% | not more than 7% |  |
| COc1cc(F)cc(F)c1-c1c(Cl)nc2ncnn2c1NC(C)C(F)(F)F (stereo not drawn) [I-38B, 5-chloro-6-(4,6-difluoro-2-methoxyphenyl)-7-(1,1,1-trifluoroprop-2-yl)amino-[1,2,4]-triazolo[1,5-α]pyrimidine] |  |  | no infection |
